# Measured values as given in the supplement of paper PMC4862054.
# Columns and labels:
# Details in all cases: incubation time: 72 h
# [1] = system: BT-474; test: normalised response (% of control), CellTox Green; higher = less cell death (100 = DMSO, 0 = benzethonium chloride kill control)
# How it was run: (§1)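 Breast cancer cell lines in 20 µl suspension were added to 384-well plates containing compound at 5 concentrations, spaced in 10-fold steps across a 10,000-fold range chosen for each compound, and incubated for 72 h. CellTox Green fluorescence was read at 485/520 nm, followed by CellTiter-Glo luminescence after 10 min at room temperature. Signals on each plate were normalised so that 0.1 % DMSO equals 100 and a positive kill control equals 0. Every value in the table is the normalised signal at one concentration of the series.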
# [2] = system: BT-549; test: as above
# How it was run: as §1
# [3] = system: CAL-120; test: as above
# How it was run: as §1
# [4] = system: CAL-148; test: as above
# How it was run: as §1
# [5] = system: CAL-51; test: as above
# How it was run: as §1
# [6] = system: CAL-85-1; test: as above
# How it was run: as §1
# [7] = system: DU-4475; test: as above
# How it was run: as §1
# [8] = system: HCC1143; test: as above
# How it was run: as §1
# [9] = system: HCC1599; test: as above
# How it was run: as §1
# [10] = system: HDQ-P1; test: as above
# How it was run: as §1
# [11] = system: Hs578T; test: as above
# How it was run: as §1
# [12] = system: MCF-10A; test: as above
# How it was run: as §1
# [13] = system: MDA-MB-231; test: as above
# How it was run: as §1
# [14] = system: MDA-MB-436; test: as above
# How it was run: as §1
# [15] = system: MDA-MB-453; test: as above
# How it was run: as §1
# [16] = system: MDA-MB-468; test: as above
# How it was run: as §1
# [17] = system: MFM-223; test: as above
# How it was run: as §1
# [18] = system: BT-474; test: normalised response (% of control), CellTiter-Glo; higher = more viable cells (100 = DMSO, 0 = benzethonium chloride kill control)
# Protocol: (§2)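 DSRT, 72 h incubation, CellTox Green / CellTiter-Glo readout. Signal is normalised to DMSO and benzethonium chloride controls. Value is the normalised response at dose 3.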
# [19] = system: BT-549; test: as above
# Protocol: as §2
# [20] = system: CAL-120; test: as above
# Protocol: as §2
# [21] = system: CAL-148; test: as above
# Protocol: as §2
# [22] = system: CAL-51; test: as above
# Protocol: as §2
# [23] = system: CAL-85-1; test: as above
# Protocol: as §2
# [24] = system: DU-4475; test: as above
# Protocol: as §2
# [25] = system: HCC1143; test: as above
# Protocol: as §2
# [26] = system: HCC1599; test: as above
# Protocol: as §2
# [27] = system: HCC1937; test: as above
# Protocol: as §2
# [28] = system: HDQ-P1; test: as above
# Protocol: as §2
# [29] = system: Hs578T; test: as above
# Protocol: as §2
# [30] = system: MCF-10A; test: as above
# Protocol: as §2
# [31] = system: MDA-MB-231; test: as above
# Protocol: as §2
# [32] = system: MDA-MB-436; test: as above
# Protocol: as §2
# [33] = system: MDA-MB-453; test: as above
# Protocol: as §2
# [34] = system: MDA-MB-468; test: as above
# Protocol: as §2
# [35] = system: MFM-223; test: as above
# Protocol: as §2
# [36] = system: SK-BR-3; test: as above
# Protocol: as §2
# [37] = system: HCC1937; test: normalised response (% of control), CellTox Green; higher = less cell death (100 = DMSO, 0 = benzethonium chloride kill control)
# How it was run: as §1
Structure (SMILES),normalised response [1] [%],normalised response [2] [%],normalised response [3] [%],normalised response [4] [%],normalised response [5] [%],normalised response [6] [%],normalised response [7] [%],normalised response [8] [%],normalised response [9] [%],normalised response [10] [%],normalised response [11] [%],normalised response [12] [%],normalised response [13] [%],normalised response [14] [%],normalised response [15] [%],normalised response [16] [%],normalised response [17] [%],normalised response [18] [%],normalised response [19] [%],normalised response [20] [%],normalised response [21] [%],normalised response [22] [%],normalised response [23] [%],normalised response [24] [%],normalised response [25] [%],normalised response [26] [%],normalised response [27] [%],normalised response [28] [%],normalised response [29] [%],normalised response [30] [%],normalised response [31] [%],normalised response [32] [%],normalised response [33] [%],normalised response [34] [%],normalised response [35] [%],normalised response [36] [%],normalised response [37] [%]
Cc1c(N)nc([C@H](CC(N)=O)NC[C@H](N)C(N)=O)nc1C(=O)N[C@H](C(=O)N[C@H](C)[C@@H](O)[C@H](C)C(=O)N[C@H](C(=O)NCCc1nc(-c2nc(C(=O)NCCC[S+](C)C)cs2)cs1)[C@@H](C)O)[C@@H](OC1OC(CO)C(O)C(O)C1OC1OC(CO)C(O)C(OC(N)=O)C1O)c1cnc[nH]1 (some centres not stated) [Bleomycin] (100 nM),98.1,87.6,95.1,93.5,36.9,99.8,98.6,91.3,91.9,110,81.2,93.2,104,58.6,103,151,101,95.8,77.2,95.3,87.7,55,96.8,93.8,90.6,94.6,84.2,99.5,93.2,90.6,89.3,89.1,90.2,80.4,95.6,92.8,–
CCCCCOC(=O)Nc1nc(=O)n([C@@H]2O[C@H](C)[C@@H](O)[C@H]2O)cc1F [Capecitabine] (100 nM),91.4,89.4,99.9,99.1,105,105,99.9,87.6,95.2,105,–,101,104,95.3,97.3,127,104,98.7,102,103,114,99.5,95.4,106,98.7,98.3,97.2,97.5,98.8,95.5,99.5,102,103,103,102,100,103
C[C@@H]1C[C@H]2[C@@H]3CCC4=CC(=O)C=C[C@]4(C)[C@@]3(F)[C@@H](O)C[C@]2(C)[C@@]1(O)C(=O)CO [Dexamethasone] (100 nM),96.4,101,96.7,97.2,99.4,107,96.4,101,96,–,114,97,–,67.3,95.5,97.2,95.7,145,103,72.8,91.2,101,113,102,101,95.2,99,84.8,92.5,84.3,154,101,83.8,103,95.7,88.4,68
Cc1c(C(=O)Nc2ccc(N3C[C@@H](C)O[C@@H](C)C3)nc2)cccc1-c1ccc(OC(F)(F)F)cc1 [Erismodegib] (100 nM),97.1,104,94.8,105,93.3,88.8,95.8,98.8,110,99.6,109,94.9,97.2,101,98.6,–,97.2,91.2,102,101,92.7,68.9,92.6,99.4,96.4,93.5,103,91.3,101,89.6,99.9,92.3,85,90.4,85.6,88.6,–
